From patent US20240254138A1, “TRICYCLIC PYRIMIDINES AS CYCLIN-DEPENDENT KINASE 7 (CDK7) INHIBITORS” (JANSSEN PHARMACEUTICA NV, priority 2021, published 2024)
Where two headings read alike, the source gives them in different places.

Tests used:
[1] = tested on: RNA Polymerase II Serine 5 phosphorylation (Rpb1 CTD, downstream substrate of CDK7) in A549 cells; test: Imaging-based cellular RNA PolII Ser5 phosphorylation assay in A549 cells; assay type: cell-based, human; settings: wild-type CDK7, RNA PolII Ser5 phosphorylation, averaged over all measurements; for IC50: Homo sapiens, A549, A549 cells, read-out: CDK7_A549 Wild-type CDK7 (pIC50) (converted); for CDK7_A549 Wild-type CDK7 (pIC50): A549 cells
Summary of the method: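 IC50 derived by fitting % control (DMSO high, 10 μM reference low) against concentration, with Hill slope. Readout: high-content imaging of phospho-Ser5 Rpb1 CTD antibody staining in fixed, permeabilized A549 cells exposed to compound 3 h after 20 h culture in 1% FBS DMEM.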

[2] = tested on: RNA Polymerase II Serine 5 phosphorylation in A549 cells overexpressing CDK7-mutant (C312S); test: Imaging-based cellular RNA PolII Ser5 phosphorylation assay in A549 cells overexpressing CDK7-mutant (C312S); assay type: cell-based, human; settings: RNA PolII Ser5 phosphorylation, averaged over all measurements; for IC50: Homo sapiens, A549, A549 cells overexpressing CDK7-mutant (C312S), read-out: CDK7_A549 mutant hCDK7(pIC50) (converted); for CDK7_A549 mutant hCDK7(pIC50): A549 cells overexpressing CDK7-mutant (C312S)
Summary of the method: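 Readout was automated imaging of anti-phospho-Ser5 Rpb1 CTD immunofluorescence, with IC50 fitted to % control versus concentration. Cells were A549 stably overexpressing non-covalently targetable CDK7 C312S alongside wild-type, exposed to compound 3 h at 37 °C. DMSO and 10 μM reference compound served as controls.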

[3] = molecular target: CDK7/cyclinH/MAT1 trimeric complex (Homo sapiens, UniProt P50613); test: In vitro CDK7 assay, potency of irreversible covalent inhibitors (kinact/KI), coupled PK/LDH ADP readout at 340 nm
[4] = CDK7 (20 nM enz.) (KI, μM), 20 nM enzyme
[5] = read-out: CDK7 (20 nM enz.) (kinact, s^−1), 20 nM enzyme
[6] = read-out: CDK7 (20 nM enz.) (kinact/KI, M^−1*s^−1), 20 nM enzyme
[7] = read-out: CDK7 (20 nM enz.) (kobs/[I], M^−1*s^−1), 20 nM enzyme
[8] = read-out: CDK7 (kinact/KI, M^−1*s^−1), potency of irreversible covalent inhibitors, 1 mM ATP, room temperature, averaged values over all measurements

CDK7/cyclinH/MAT1 trimeric complex, sequence (P50613 whole entry): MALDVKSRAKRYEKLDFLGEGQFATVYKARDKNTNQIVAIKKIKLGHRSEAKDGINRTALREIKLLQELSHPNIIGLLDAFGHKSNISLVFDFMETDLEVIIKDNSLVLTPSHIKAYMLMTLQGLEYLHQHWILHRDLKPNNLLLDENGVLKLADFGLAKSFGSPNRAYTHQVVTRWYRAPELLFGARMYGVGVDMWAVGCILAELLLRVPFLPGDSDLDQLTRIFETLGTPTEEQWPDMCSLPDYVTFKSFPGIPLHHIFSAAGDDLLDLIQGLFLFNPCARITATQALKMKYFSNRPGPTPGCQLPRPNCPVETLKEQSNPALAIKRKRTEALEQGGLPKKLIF
CDK7/cyclinH/MAT1 trimeric complex, sequence (P51946 whole entry partner): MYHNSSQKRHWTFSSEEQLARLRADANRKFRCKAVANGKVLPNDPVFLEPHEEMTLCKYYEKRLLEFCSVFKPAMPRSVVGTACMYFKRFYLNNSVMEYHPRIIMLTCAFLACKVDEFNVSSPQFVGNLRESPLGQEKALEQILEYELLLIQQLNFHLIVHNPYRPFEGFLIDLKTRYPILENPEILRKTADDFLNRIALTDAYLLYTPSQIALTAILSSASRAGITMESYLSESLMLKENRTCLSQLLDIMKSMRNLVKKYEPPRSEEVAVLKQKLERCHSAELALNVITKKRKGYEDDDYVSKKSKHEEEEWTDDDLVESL
CDK7/cyclinH/MAT1 trimeric complex, sequence (P51948 whole entry partner): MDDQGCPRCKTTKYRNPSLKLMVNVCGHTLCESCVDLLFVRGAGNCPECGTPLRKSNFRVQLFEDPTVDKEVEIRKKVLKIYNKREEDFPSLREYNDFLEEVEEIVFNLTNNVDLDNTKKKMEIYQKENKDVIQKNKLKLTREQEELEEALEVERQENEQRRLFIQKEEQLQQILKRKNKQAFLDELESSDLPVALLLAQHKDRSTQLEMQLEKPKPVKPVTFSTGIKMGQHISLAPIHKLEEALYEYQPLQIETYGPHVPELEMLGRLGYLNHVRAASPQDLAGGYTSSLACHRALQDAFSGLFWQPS

Structure (SMILES) | IC50 [1] [nM] | IC50 [2] [nM] | Ki [3, 4] [µM] | kinact [3, 5] [s⁻¹] | kinact/KI [3, 6] [M⁻¹ s⁻¹] | CDK7_A549 Wild-type CDK7 (pIC50) [1] | CDK7_A549 mutant hCDK7(pIC50) [2] | kinact/KI [3, 7] [M⁻¹ s⁻¹] | kinact/KI [3, 8] [M⁻¹ s⁻¹] | CDK7 (20 nM enz.) (kinact, s^−1) ([3]; 20 nM enzyme) [s⁻¹] | CDK7 (20 nM enz.) (kinact/KI, M^−1*s^−1) ([3]; 20 nM enzyme) [M⁻¹ s⁻¹] | Ki ([3]; CDK7 (KI(μM)), […], 1 mM ATP, room temperature, averaged values over all measurements) [µM] | kinact ([3]; read-out: CDK7 (kinact, s^−1), kinact = maximal rate of inactivation, 1 mM ATP, room temperature, averaged values over all measurements) [s⁻¹]
C=CC(=O)N1CCC2(CC1)CC(c1cc(F)c3c(c1)Nc1nccc(N4CCOCC4)c1CO3)C2 [Compound 250] | 1820 | > 10000 | 0.564 | 1.06e-05 | 18.9 |  |  |  |  |  |  |  | 
C=CC(=O)N1CC(N2CCC(c3cc(C)c4c(c3)Nc3nccc(N5CCOCC5)c3CO4)CC2)C1 [Compound 66] |  |  |  |  |  | 7.16 | <5 | 1030 |  |  |  |  | 
C=CC(=O)N1CC(N2CCC(c3ccc4c(c3)Nc3nccc(C5CCOCC5)c3[C@H](C)O4)CC2)C1 (single isomer, unassigned) [Compound 104] | 1170 | > 10000 | 0.431 | 4.85e-05 | 112 |  |  |  |  |  |  |  | 
CC#CC(=O)N1CC(N2CCC(c3cc4c(c(C5CC5)n3)O[C@@H](C)c3c(N5CCOCC5)ccnc3N4)CC2)C1 (single isomer, unassigned) [Compound 498] | 148 | > 10000 | 0.0867 | 5.15e-05 | 594 |  |  |  |  |  |  |  | 
C=CC(=O)N1CCC(c2ccc3c(c2)OCc2c(N4CCOCC4)ccnc2N3)C1 (stereo not shown) [Compound 55] | > 10000 | > 10000 |  |  |  |  |  |  | 2.45 |  |  |  | 
C=CC(=O)N1CC(N2CCC(c3cc4c(c(C)n3)O[C@H](C)c3c(C5CCOCC5)ccnc3N4)CC2)C1 (single isomer, unassigned) [Compound 246] | ~28.8 | > 10000 | 0.0946 | 8.4e-05 | 887 |  |  |  |  |  |  |  | 
C=CC(=O)N1CCC(N2CCC(c3cc(C)c4c(c3)Nc3nccc(N5CCOCC5)c3CO4)CC2)C1 (stereo not shown) [Compound 78] | 26.9 | 8130 |  |  |  |  |  | 908 |  |  |  |  | 
C=CC(=O)N1CC[C@@H](N2CC(c3cc4c(c(C5CC5)n3)OCc3c(N5CCOCC5)ccnc3N4)C2)C1 (single isomer, unassigned) [Compound 427] |  |  | 0.0447 |  |  | 6.99 | <5 |  |  | 7.839e-05 | 1751.84 |  | 
C=C(C(=O)N1CC[C@H](N2CCC(c3cc4c(c(C)n3)OCc3c(-c5cnn(C)c5)ccnc3N4)CC2)C1)n1cccn1 (single isomer, unassigned) [Compound 372] | 70.8 | > 10000 | 0.0621 | 3.74e-05 | 603 |  |  |  |  |  |  |  | 
CC#CC(=O)N1CC(n2cc(-c3cc(C#N)c4c(c3)Nc3nccc(N5CCOCC5)c3C(C)O4)cn2)C1 (stereo not shown) [Compound 417] | 58.9 | 2950 | 0.0223 | 1.51e-05 | 678 |  |  |  |  |  |  |  | 
C=CC(=O)N1CC(c2ncc(-c3ccc4c(c3)Nc3nccc(N5CCOCC5)c3CO4)cn2)C1 [Compound 56] | 182 | > 10000 |  |  |  |  |  |  | 1040 |  |  | 0.0673 | 6.99e-05
C=CC(=O)N1CC(N2CC(c3cc(F)c4c(c3)Nc3nccc(N5CCOCC5)c3CO4)C2)C1 [Compound 166] | 75.9 | > 10000 | 0.0262 | 5.16e-05 | 1970 |  |  |  |  |  |  |  | 
Cc1nc(C2CCN(C3CN(C(=O)/C=C/CN(C)C)C3)CC2)cc2c1OCc1c(-c3cnn(C)c3)ccnc1N2 [Compound 540] | 550 | > 10000 | 0.0301 | 7.15e-05 | 2310 |  |  |  |  |  |  |  | 
CC#CC(=O)N1CCC(N2CCC(c3cc4c(c(C)n3)O[C@@H](C)c3c(N5CCOCC5)ccnc3N4)CC2)CC1 (single isomer, unassigned) [Compound 426] | 63.1 | > 10000 | 0.642 | 4.43e-05 | 69 |  |  |  |  |  |  |  | 
